According to patent US20100068160A1, “COSMETIC AND DERMATOLOGICAL FORMULATIONS INCLUDING PHENOXYALKYL ESTERS” (EVONIK GOLDSCHMIDT GMBH, priority 2008, published 2010):

Assay: Dissolving power of UV photoprotective filters in phenoxyalkyl esters
Type: physicochemical
Conditions: percent by weight, 22° C.; for Dissolving power for Benzophenone-3: maximum dissolvable amount of UV filter Benzophenone-3 (BP-3) in the substance; for Dissolving power for BMDM: maximum dissolvable amount of UV filter Butyl Methoxydibenzoylmethane (BMDM) in the substance; for Dissolving power for Tinosorb S: maximum dissolvable amount of UV filter Tinosorb S (Bemotrizinol, BEMT) in the substance; for Dissolving power for Uvinul T 150: maximum dissolvable amount of UV filter Uvinul T 150 (Octyl Triazone, EHT) in the substance
Excerpt: To test the dissolving power of crystalline UV photoprotective filters in phenoxyalkyl esters, four representative UV-A and/or UV-B photoprotective filters were selected by way of representation. These were benzophenone-3 (2-hydroxy-4-methoxybenzophenone, BP-3), Butyl Methoxydibenzoylmethane (BMDM), Octyl Triazone (2,4,6-trianilino-p-(carbo-2′-ethylhexyl-1′-oxy)-1,3,5-triazines, EHT) and Bemotrizinol (bis-ethylhexyloxyphenol meth-oxyphenyl triazine, BEMT).
To determine the dissolving power for these […] UV photoprotective filters, in each case a certain amount (50 g) of one of the compounds according to the invention was initially introduced and heated to 22° C. One (1) percent by weight of a UV photoprotective filter was added and the mixture was stirred until this amount had dissolved completely and homogeneously. This operation was repeated until the maximum dissolvable amount of the UV photoprotective filter was exceeded. For complete dissolution in the case of relatively high concentrations, a prolonged stirring time of several hours was often necessary.
If the maximum concentration had been roughly determined in this way, to finely determine the concentration range around this maximum concentration the procedure was repeated using smaller initial weight amounts of the […] photoprotective filter.
The reference used was the compound Tegosoft® TN (C12-15 alkyl benzoate).

Molecule	Dissolving power for Benzophenone-3 [%]	Dissolving power for BMDM [%]	Dissolving power for Tinosorb S [%]	Dissolving power for Uvinul T 150 [%]
CCCCCC(CCC)C(=O)OCCOc1ccccc1 (centres unmarked) [2-Phenoxyethyl 2-propylheptanoate]	20	13	9	4
CCCCC(CC)C(=O)OCCOc1ccccc1 (centres unmarked) [2-Phenoxyethyl 2-ethylhexanoate, 2-phenoxyethyl-2-ethylhexanoic acid ester]	25	17	12	4
CCCCCC(=O)OCCOc1ccccc1 [2-Phenoxyethyl caproate]	28	18	11	6
CC(C)CCCCCC(=O)OCCOc1ccccc1 [2-Phenoxyethyl isononanoate]	25	16	9	4
CCCCCCCC(=O)OCCOc1ccccc1 [2-Phenoxyethyl caprylate, 2-phenoxyethyloctanoic acid ester]	28	18	11	6
CC(COc1ccccc1)OC(=O)C1CCCCC1 (centres unmarked) [1-Phenoxy-2-propyl cyclohexanoate, 1-phenoxy-2-propylcyclohexanecarboxylic acid ester]	27	16	10	6
C12-15 alkyl benzoate [Tegosoft ® TN, reference compound]	15	13	9	4
O=C(OCCOc1ccccc1)C1CCCCC1 [2-Phenoxyethyl cyclohexanoate, 2-phenoxyethylcyclohexanecarboxylic acid ester]	30	19	12	6
CCCCCCCC(=O)OC(C)COc1ccccc1 (centres unmarked) [1-Phenoxy-2-propyl caprylate, 1-phenoxy-2-propyloctanoic acid ester]	21	14	9	6
CCCCC(CC)C(=O)OC(C)COc1ccccc1 (centres unmarked) [1-Phenoxy-2-propyl 2-ethylhexanoate]	21	15	9	4
CCCCCCC(CCCC)C(=O)OCCOc1ccccc1 (centres unmarked) [2-Phenoxyethyl 2-butyloctanoate, 2-phenoxyethyl-2-butyloctanoic acid ester]	19	14	8	5
